According to PMC5540273, “Progress towards a public chemogenomic set for protein kinases and a call for contributions” (PLoS ONE, 2017):

Tests used:
Test in all cases: KINOMEscan competition binding
[1] = target: AURKB (Homo sapiens, UniProt Q96GD4); settings: read-out: %Inh AURKB
[2] = target: LTK (Homo sapiens, UniProt P29376); settings: read-out: %Inh LTK
[3] = target: T1, ASK1 (Homo sapiens, UniProt Q99683); settings: read-out: %Inh ASK1
T1 sequence (Q99683 1-1374): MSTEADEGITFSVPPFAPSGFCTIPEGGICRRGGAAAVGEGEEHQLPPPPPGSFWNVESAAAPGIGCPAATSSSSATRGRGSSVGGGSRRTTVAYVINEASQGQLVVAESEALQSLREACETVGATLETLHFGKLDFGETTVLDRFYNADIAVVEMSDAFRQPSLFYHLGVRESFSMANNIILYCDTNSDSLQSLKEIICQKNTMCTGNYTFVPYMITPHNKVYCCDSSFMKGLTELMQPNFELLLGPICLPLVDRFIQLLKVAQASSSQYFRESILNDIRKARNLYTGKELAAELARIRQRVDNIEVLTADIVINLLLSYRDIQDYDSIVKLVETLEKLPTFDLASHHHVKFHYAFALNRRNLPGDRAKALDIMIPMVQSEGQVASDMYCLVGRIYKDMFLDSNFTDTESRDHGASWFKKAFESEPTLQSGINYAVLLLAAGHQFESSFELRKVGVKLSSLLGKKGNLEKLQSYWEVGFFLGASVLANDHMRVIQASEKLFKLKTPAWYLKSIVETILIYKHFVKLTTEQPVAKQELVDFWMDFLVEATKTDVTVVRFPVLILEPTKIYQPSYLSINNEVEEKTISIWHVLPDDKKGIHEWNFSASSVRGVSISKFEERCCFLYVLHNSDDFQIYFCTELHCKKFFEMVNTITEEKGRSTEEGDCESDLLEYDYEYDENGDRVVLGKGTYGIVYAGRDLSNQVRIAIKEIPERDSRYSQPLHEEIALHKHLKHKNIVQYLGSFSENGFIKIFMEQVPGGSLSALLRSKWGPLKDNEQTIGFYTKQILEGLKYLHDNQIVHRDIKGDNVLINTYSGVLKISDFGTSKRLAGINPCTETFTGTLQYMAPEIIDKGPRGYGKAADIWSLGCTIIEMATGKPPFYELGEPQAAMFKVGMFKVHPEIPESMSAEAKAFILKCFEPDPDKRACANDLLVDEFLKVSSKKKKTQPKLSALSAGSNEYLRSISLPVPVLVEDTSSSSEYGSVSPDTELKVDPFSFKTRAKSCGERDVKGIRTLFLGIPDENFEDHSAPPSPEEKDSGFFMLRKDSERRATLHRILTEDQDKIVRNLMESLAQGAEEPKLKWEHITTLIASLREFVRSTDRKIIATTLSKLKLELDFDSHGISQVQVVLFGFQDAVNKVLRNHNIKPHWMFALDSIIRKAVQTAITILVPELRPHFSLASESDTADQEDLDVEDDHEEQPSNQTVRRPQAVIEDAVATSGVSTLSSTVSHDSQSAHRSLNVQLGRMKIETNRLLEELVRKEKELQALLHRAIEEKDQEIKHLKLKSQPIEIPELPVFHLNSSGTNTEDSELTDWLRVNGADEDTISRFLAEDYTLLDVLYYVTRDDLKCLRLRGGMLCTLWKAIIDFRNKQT

[4] = target: EPHA4 (Homo sapiens, UniProt P54764); settings: read-out: %Inh EPHA4
EPHA4, sequence (P54764 20-986): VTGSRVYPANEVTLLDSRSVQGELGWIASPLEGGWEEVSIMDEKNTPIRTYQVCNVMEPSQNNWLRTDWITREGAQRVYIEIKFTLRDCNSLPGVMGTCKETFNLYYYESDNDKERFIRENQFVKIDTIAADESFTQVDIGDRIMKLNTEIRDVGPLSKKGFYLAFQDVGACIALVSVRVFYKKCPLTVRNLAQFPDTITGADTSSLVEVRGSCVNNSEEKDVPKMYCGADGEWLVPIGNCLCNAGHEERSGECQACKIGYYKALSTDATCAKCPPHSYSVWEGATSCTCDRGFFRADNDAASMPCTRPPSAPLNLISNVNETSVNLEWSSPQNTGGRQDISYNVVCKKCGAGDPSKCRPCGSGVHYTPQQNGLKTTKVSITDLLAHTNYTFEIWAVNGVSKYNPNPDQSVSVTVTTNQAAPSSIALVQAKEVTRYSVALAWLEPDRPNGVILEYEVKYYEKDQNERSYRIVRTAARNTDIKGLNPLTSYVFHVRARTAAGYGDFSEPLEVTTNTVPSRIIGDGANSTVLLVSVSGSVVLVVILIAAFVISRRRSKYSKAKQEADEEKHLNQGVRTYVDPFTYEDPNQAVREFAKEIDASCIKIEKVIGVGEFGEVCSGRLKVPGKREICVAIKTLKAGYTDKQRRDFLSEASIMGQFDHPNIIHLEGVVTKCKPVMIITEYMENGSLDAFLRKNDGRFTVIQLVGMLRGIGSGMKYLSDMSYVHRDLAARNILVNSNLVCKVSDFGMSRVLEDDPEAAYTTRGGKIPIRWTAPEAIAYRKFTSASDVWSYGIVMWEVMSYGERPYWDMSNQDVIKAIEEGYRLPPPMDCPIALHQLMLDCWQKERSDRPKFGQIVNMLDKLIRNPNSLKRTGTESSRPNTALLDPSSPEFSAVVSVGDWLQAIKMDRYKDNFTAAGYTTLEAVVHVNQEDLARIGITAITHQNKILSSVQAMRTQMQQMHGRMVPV

[5] = target: AKT2 (Homo sapiens, UniProt P31751); settings: read-out: %Inh AKT2
AKT2, sequence (P31751 whole entry): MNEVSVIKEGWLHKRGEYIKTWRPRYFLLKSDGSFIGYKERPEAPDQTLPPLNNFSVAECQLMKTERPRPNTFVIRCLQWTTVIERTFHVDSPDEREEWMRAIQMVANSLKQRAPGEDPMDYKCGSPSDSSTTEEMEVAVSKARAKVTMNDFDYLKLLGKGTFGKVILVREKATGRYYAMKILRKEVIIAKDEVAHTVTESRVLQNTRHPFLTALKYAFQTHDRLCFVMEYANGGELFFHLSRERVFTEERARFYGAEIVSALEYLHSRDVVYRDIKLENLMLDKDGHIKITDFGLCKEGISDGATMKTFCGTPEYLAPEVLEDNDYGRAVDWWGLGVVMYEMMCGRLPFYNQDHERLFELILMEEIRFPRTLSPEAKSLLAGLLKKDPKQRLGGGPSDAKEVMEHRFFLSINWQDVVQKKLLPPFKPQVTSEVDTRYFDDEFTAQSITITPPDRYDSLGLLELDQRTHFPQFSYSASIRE

[6] = target: CSK (Homo sapiens, UniProt P41240); settings: read-out: %Inh CSK
CSK, sequence (P41240 whole entry): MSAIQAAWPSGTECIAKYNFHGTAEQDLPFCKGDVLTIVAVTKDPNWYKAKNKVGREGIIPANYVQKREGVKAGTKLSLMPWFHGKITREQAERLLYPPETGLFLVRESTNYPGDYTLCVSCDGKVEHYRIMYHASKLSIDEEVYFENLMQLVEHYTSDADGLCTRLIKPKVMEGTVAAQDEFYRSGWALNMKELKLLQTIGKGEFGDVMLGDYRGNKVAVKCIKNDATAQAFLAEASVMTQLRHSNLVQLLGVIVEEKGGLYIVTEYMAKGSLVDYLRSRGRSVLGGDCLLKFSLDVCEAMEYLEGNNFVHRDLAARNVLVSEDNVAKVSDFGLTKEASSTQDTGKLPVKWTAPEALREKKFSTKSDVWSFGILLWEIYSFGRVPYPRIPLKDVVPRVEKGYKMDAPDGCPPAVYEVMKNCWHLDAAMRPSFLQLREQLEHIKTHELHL

[7] = target: BLK (Homo sapiens, UniProt P51451); settings: read-out: %Inh BLK
BLK, sequence (P51451 whole entry): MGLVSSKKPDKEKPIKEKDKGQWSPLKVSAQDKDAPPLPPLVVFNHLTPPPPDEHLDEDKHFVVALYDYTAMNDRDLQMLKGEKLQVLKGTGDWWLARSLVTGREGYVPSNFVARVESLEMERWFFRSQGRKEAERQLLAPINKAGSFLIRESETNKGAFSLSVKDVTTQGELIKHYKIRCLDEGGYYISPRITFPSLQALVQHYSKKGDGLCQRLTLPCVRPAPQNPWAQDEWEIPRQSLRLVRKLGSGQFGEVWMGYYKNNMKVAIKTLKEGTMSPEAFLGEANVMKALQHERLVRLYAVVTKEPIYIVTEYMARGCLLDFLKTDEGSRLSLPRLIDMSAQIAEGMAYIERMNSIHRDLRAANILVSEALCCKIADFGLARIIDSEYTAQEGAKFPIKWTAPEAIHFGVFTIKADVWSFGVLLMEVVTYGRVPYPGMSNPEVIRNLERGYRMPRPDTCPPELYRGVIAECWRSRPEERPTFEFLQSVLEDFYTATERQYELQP

[8] = target: FGFR2 (Homo sapiens, UniProt P21802); settings: read-out: %Inh FGFR2
FGFR2, sequence (P21802 22-821): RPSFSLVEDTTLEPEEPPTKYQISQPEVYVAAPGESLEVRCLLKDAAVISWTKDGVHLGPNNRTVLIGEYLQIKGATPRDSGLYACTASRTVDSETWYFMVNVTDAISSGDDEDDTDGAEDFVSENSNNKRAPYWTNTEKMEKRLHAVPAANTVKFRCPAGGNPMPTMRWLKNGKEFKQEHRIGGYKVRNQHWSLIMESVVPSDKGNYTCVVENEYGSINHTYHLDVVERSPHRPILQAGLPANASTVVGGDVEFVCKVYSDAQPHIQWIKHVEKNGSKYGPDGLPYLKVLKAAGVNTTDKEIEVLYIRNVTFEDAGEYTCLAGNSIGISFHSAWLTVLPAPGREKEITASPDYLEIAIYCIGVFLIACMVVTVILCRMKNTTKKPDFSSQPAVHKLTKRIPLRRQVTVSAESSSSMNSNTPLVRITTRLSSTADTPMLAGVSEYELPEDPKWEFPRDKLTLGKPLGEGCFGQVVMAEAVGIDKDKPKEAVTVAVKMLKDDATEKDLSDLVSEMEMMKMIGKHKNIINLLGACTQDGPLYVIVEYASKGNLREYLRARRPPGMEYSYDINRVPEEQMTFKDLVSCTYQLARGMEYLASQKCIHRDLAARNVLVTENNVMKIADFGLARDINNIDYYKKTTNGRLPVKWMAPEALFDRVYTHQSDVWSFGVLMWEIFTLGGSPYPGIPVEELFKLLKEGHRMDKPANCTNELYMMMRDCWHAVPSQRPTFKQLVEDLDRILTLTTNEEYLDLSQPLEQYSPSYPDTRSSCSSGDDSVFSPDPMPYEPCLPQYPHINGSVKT

AURKB, sequence (Q96GD4 whole entry): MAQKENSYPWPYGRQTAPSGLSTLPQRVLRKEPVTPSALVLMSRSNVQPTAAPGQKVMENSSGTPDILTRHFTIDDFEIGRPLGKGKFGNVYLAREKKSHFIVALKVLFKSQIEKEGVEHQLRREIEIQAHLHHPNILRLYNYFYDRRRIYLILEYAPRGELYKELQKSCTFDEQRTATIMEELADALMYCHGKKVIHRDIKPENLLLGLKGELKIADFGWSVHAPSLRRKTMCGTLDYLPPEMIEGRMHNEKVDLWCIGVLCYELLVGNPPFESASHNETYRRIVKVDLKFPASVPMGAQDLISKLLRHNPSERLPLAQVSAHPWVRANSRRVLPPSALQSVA
LTK, sequence (P29376 17-864): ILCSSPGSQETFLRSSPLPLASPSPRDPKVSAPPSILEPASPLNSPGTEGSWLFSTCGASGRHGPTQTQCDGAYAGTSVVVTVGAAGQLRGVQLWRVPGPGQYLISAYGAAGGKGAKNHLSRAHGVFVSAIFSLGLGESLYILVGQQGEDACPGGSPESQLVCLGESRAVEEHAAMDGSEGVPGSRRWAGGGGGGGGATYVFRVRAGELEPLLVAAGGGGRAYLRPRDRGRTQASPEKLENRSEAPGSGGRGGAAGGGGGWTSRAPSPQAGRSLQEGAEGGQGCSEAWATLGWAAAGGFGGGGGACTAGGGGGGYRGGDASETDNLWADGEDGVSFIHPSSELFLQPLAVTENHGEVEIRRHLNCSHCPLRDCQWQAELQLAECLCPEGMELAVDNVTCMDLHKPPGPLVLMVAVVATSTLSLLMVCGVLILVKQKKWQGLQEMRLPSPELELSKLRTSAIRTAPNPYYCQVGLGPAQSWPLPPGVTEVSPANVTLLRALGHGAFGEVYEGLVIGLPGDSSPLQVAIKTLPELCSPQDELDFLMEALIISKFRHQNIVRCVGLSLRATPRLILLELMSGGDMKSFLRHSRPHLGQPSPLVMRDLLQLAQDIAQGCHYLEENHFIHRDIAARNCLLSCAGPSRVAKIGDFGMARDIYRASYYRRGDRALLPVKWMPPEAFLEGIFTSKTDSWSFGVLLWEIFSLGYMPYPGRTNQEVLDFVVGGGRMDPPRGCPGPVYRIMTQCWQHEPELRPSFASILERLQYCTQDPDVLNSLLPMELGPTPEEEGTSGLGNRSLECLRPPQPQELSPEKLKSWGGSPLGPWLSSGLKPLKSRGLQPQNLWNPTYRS

| SMILES | inhibition at 1 µM [1] [%] | inhibition at 1 µM [2] [%] | inhibition at 1 µM [3] [%] | inhibition at 1 µM [4] [%] | inhibition at 1 µM [5] [%] | inhibition at 1 µM [6] [%] | inhibition at 1 µM [7] [%] | inhibition at 1 µM [8] [%] |
| --- | --- | --- | --- | --- | --- | --- | --- | --- |
| Cn1cc(-c2cnc(N)c3c(-c4ccc5c(c4)CCN5C(=O)Cc4ccccc4)csc23)cn1 [UNC10225012A] | 97.8 | 0 | 21 | 11 | 0 | 20 | 93 | 40 |
| CS(=O)(=O)Cc1ccc(Nc2nccc(-c3c(-c4cccc(NC(=O)C5CCCCC5)c4)nn4ncccc34)n2)cc1 [UNC10225159A] | 15 | 0 | 0 | 14 | 4 | 10 | 0 | 41 |
| Cc1ccc(NC(=O)Nc2cccc(C(F)(F)F)c2)cc1 [UNC10225187A] | 0 | 0 | 20 | 6 | 3 | 28 | 0 | 0 |
| COc1cccc(OC)c1C(=O)Nc1cccc(-c2nn3ccccc3c2-c2ccnc(Nc3cccc(F)c3)n2)c1 [UNC10225310A] | 0 | 13 | 22 | 0 | 0 | 18 | 41 | 0 |
| O=c1cc(N2CCOCC2)nc2n(Cc3cccc(Cl)c3Cl)c(C3CC3)nn12 [UNC10225469A] | 4 | 0 | 0 | 11 | 0 | 8 | 0 | 1 |
